≈ marks a conversion by molar mass, not a printed value. Calls of active or inactive are those of the source. The rule behind the calls is not given here.
Key:
[1] = Toxicity in Amyloid beta (1 to 42)-treated ICR mouse assessed as body weight change at 10 mg/kg, po administered daily for 12 days; type: organism-based; settings: in vivo, 288 h, time 12 day
[2] = Ratio of AUC (0 to t) in brain to plasma in ICR mouse at 10 mg/kg, po measured for 10 to 480 mins by spectroscopy; type: ADME, organism-based; settings: time 10-480 min
[3] = target: Amyloid-beta precursor protein (Mus musculus) (UniProt P12023); assay: In vivo inhibition of Amyloid beta (1 to 42) self-aggregation in brain of Amyloid beta (1 to 42)-treated ICR mouse at 10 mg/kg, po administered daily for 12 days; type: functional, organism-based; settings: time 12.0 day
SH-SY5Y [4] = assay: Neuroprotective activity against amyloid beta (1 to 42)-induced neuronal death in human SH-SY5Y cells assessed as cell viability pretreated for 1 hr followed by amyloid beta (1 to 42) addition measured after 24 hrs by MTT assay; type: functional, cell-based; settings: dose 1-10 µM, time 25.0 hrs
BV-2 = assay: Cytotoxicity against mouse BV-2 cells assessed as survival rate at 100 uM incubated for 24 hrs by MTT assay relative to control; type: functional; settings: read-out: Survival
[5] = Half life in Sprague-Dawley rat at 10 mg/kg, iv measured for 1 to 1440 mins by LC-MS/MS analysis; type: ADME, organism-based; settings: in vivo, time 1-1440 min
SH-SY5Y [6] = assay: Cytotoxicity against human SH-SY5Y cells assessed as survival rate incubated for 24 hrs by MTT assay; type: functional, cell-based
Cytochrome P450 3A4/3A5 = Cytochrome P450 3A4/3A5 (Homo sapiens, UniProt P08684+P20815); assay: Inhibition of CYP3A4/CYP3A5 in human liver microsomes at 10 uM in presence of NADPH-regenerating system by LC-MS/MS analysis; type: ADME, Microsome
HT-22 [7] = assay: Neuroprotective activity against glutamate-induced excitotoxicity in mouse HT-22 cells assessed as cell viability at 1 to 10 uM pretreated for 1 hr followed by glutamate addition measured after 24 hrs by MTT assay; type: functional, cell-based; settings: dose 1-10 µM, time 25.0 hrs
HT-22 [8] = assay: Cytotoxicity against mouse HT-22 cells assessed as survival rate at 100 uM incubated for 24 hrs by MTT assay relative to control; type: functional; settings: read-out: Survival
[9] = Acute toxicity in ICR mouse assessed as animal death at 1 g/kg, IG; settings: in vivo, po, 1000 mg/kg
[10] = MRT (infinity) in Sprague-Dawley rat at 10 mg/kg, iv measured for 1 to 1440 mins by LC-MS/MS analysis; type: ADME, organism-based; settings: in vivo, time 1-1440 min
PC-12 [11] = assay: Neuroprotective activity in rat PC12 cells assessed as cell viability pretreated for 2 hrs followed by H2O2 addition measured after 24 hrs by MTT assay; type: functional, cell-based; settings: time 26.0 hrs
[12] = Ratio of Cmax in brain to plasma in ICR mouse at 10 mg/kg, po measured for 10 to 480 mins by spectroscopy; type: ADME, organism-based; settings: time 10-480 min
[13] = AUC (0 to t) in plasma of ICR mouse at 10 mg/kg, po measured for 10 to 480 mins by spectroscopy; type: ADME, organism-based; settings: time 10-480 min
[14] = Metabolic stability in human liver microsomes assessed as compound metabolism at 2 uM measured for 60 mins by LC-MS/MS analysis; type: ADME, Microsome; settings: read-out: Drug metabolism
[15] = Cmax in brain of ICR mouse at 10 mg/kg, po measured for 10 to 480 mins by spectroscopy; type: ADME, organism-based; settings: time 10-480 min
[16] = Permeability of compound at 50 ug/ml incubated for 18 hrs by PAMPA; type: ADME; settings: dose 50 µg/ml, read-out: permeability
[17] = Cmax in Sprague-Dawley rat at 10 mg/kg, iv measured for 1 to 1440 mins by LC-MS/MS analysis; type: ADME, organism-based; settings: in vivo, time 1-1440 min
[18] = AUC (0 to t) in Sprague-Dawley rat at 10 mg/kg, po measured for 1 to 1440 mins by LC-MS/MS analysis; type: ADME, organism-based; settings: in vivo, time 1-1440 min
Mus musculus [19] = assay: Downregulation of Amyloid beta (1 to 42) level in brain of Amyloid beta (1 to 42)-treated ICR mouse at 10 mg/kg, po administered daily for 12 days; type: functional, organism-based; settings: time 12.0 day
[20] = Tmax in Sprague-Dawley rat at 10 mg/kg, iv measured for 1 to 1440 mins by LC-MS/MS analysis; type: ADME, organism-based; settings: in vivo, time 1-1440 min
Mus musculus [21] = assay: Cognitive enhancing effect in Amyloid beta (1 to 42)-treated ICR mouse assessed as shorter arrival time at 10 mg/kg, po administered daily measured after 7 to 12 days by Morris water maze test; type: functional, organism-based; settings: time 7-12 day
Mus musculus [22] = assay: Cognitive enhancing effect in Amyloid beta (1 to 42)-treated ICR mouse assessed as reduction in trajectory uncertainty at 10 mg/kg, po administered daily measured after 7 to 12 days by Morris water maze test; type: functional, organism-based; settings: time 7-12 day
Cholinesterase [23] = target: Cholinesterase (Equus caballus, UniProt P81908); assay: Inhibition of horse serum BChE using BTC iodide as substrate preincubated for 5 mins followed by substrate addition measured after 2 mins by Ellman's method
CYP2D6 = CYP2D6 (Homo sapiens, UniProt P10635); assay: Inhibition of CYP2D6 in human liver microsomes at 10 uM in presence of NADPH-regenerating system by LC-MS/MS analysis relative to control; type: ADME, Microsome
CYP2C9 = CYP2C9 (Homo sapiens, UniProt P11712); assay: Inhibition of CYP2C9 in human liver microsomes at 10 uM in presence of NADPH-regenerating system by LC-MS/MS analysis relative to control; type: ADME, Microsome
[24] = AUC (0 to t) in Sprague-Dawley rat at 10 mg/kg, iv measured for 1 to 1440 mins by LC-MS/MS analysis; type: ADME, organism-based; settings: in vivo, time 1-1440 min
[25] = AUC (0 to infinity) in Sprague-Dawley rat at 10 mg/kg, iv measured for 1 to 1440 mins by LC-MS/MS analysis; type: ADME, organism-based; settings: in vivo, time 1-1440 min
[26] = Cmax in Sprague-Dawley rat at 10 mg/kg, po measured for 1 to 1440 mins by LC-MS/MS analysis; type: ADME, organism-based; settings: Sprague-Dawley, in vivo, time 1-1440 min, read-out: Cmax
[27] = AUC (0 to infinity) in Sprague-Dawley rat at 10 mg/kg, po measured for 1 to 1440 mins by LC-MS/MS analysis; type: ADME, organism-based; settings: in vivo, time 1-1440 min
[28] = Solubility of compound in FaSSIF incubated for 24 hrs by HPLC analysis; type: ADME
Cholinesterase [29] = target: Cholinesterase (Homo sapiens, UniProt P06276); assay: Non-competitive inhibition of human BChE
PC-12 [30] = assay: Cytotoxicity against rat PC12 cells assessed as survival rate at 100 uM incubated for 24 hrs by MTT assay relative to control; type: functional; settings: read-out: Survival

CYP2D6, sequence (P10635 whole entry): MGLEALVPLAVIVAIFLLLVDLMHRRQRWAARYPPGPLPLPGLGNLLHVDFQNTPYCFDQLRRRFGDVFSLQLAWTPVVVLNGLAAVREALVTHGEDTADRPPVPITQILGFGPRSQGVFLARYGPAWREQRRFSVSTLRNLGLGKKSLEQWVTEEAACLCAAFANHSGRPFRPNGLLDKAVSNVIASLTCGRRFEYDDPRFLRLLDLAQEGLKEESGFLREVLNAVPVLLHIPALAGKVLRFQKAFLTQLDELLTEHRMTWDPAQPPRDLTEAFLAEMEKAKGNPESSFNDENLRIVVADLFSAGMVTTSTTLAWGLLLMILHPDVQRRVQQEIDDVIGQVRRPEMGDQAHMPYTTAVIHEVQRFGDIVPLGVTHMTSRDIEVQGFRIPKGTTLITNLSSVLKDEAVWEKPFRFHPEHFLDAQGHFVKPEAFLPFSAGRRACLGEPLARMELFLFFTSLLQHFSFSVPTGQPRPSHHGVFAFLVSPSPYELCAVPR
Amyloid-beta precursor protein (Mus musculus), sequence (P12023 whole entry): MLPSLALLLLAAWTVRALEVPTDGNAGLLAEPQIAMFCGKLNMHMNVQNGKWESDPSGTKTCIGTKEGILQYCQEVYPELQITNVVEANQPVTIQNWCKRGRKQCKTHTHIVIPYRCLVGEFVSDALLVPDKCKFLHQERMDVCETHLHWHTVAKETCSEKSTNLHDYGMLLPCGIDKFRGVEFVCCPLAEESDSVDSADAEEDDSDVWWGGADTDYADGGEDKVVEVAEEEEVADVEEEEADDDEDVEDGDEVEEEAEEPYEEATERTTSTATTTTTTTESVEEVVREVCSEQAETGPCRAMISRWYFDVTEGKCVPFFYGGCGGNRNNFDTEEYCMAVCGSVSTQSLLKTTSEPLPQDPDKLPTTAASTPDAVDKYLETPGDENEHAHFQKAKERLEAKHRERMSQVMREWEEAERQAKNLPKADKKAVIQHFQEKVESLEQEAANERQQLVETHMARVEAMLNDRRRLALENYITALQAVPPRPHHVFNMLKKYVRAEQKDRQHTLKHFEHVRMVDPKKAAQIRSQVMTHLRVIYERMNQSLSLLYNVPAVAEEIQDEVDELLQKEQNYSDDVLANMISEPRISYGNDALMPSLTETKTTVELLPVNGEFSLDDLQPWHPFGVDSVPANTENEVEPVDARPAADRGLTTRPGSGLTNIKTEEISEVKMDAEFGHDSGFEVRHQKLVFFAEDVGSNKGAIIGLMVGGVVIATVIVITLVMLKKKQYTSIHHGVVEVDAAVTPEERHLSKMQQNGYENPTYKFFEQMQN
Cholinesterase (Equus caballus, UniProt P81908), sequence (P81908 whole entry): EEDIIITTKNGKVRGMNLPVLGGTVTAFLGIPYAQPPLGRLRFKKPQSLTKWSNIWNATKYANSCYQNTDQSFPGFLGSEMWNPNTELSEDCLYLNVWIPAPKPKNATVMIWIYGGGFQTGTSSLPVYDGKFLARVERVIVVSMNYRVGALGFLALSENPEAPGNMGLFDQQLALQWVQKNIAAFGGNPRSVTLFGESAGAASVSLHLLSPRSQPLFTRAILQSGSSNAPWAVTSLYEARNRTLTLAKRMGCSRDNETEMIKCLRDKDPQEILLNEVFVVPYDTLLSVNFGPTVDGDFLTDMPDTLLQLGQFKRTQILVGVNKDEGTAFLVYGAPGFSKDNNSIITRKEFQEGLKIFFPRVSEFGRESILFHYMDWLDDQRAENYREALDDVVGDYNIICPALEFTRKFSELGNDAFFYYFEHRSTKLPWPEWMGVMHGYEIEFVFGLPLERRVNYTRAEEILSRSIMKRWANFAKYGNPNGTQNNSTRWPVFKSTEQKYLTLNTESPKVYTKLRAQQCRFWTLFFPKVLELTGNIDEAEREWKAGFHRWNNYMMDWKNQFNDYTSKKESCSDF
Cholinesterase (Homo sapiens, UniProt P06276), sequence (P06276 whole entry): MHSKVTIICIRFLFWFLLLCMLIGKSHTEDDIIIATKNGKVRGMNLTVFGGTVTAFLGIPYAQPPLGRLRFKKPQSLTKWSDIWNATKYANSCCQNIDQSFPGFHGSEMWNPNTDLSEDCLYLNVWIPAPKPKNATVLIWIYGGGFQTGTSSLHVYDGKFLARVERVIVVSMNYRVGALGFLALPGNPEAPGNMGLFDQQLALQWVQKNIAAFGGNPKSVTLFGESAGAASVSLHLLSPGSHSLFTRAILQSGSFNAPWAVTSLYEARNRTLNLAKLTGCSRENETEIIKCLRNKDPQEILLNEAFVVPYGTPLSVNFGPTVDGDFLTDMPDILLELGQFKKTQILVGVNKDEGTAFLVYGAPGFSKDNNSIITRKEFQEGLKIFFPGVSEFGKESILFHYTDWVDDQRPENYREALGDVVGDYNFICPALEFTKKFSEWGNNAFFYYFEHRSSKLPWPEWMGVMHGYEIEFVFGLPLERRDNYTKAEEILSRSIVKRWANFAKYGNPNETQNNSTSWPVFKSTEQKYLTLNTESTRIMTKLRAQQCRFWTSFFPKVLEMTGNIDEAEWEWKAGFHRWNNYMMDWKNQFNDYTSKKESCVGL
CYP2C9, sequence (P11712 whole entry): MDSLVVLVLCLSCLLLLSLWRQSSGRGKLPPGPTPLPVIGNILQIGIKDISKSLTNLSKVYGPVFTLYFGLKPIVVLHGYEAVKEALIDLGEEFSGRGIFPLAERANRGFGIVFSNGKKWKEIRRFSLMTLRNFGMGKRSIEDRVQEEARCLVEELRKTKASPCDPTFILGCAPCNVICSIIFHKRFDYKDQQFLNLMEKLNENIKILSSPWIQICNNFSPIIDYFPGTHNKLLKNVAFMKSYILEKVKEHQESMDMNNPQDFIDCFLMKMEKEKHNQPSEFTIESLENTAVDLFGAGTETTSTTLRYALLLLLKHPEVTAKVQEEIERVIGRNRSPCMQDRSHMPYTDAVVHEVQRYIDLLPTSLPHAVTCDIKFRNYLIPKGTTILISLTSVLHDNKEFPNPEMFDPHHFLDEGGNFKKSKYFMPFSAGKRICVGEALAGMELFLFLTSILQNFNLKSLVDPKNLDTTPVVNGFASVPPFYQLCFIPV

Structure (SMILES): Nc1nonc1-c1nc2ccccc2n1CC(=O)Nc1ccc(CCN2CCOCC2)cc1
- Activity [1]: Non-Toxic
- Kp [2]: 0.32
- inhibition [3]: inactive
- Activity (SH-SY5Y [4]): Dose-Dependent Effect
- viability at 100 µM (BV-2): 66.5%
- half-life [5]: 3.29 h
- IC50 (SH-SY5Y [6]): 89.8 µM
- inhibition (INH) (Cytochrome P450 3A4/3A5): Not Active
- Activity (HT-22 [7]): Active
- viability at 100 µM (HT-22 [8]): 80.7%
- Activity [9]: Non-Toxic
- MRT inf [10]: 2.57 h
- Activity (PC-12 [11]): Dose-Dependent Effect
- Kp [12]: 0.15
- AUC(0-t) [13]: 826 ng·h/mL
- metabolised at 1 h, 2 µM [14]: < 15%
- Cmax [15]: 209 ng/mL
- Papp at 18 h, 50 ug/ml [16]: 6.64 ×10⁻⁶ cm/s
- Cmax [17]: 4610 ng/mL
- AUC(0-t) [18]: 1440 ng·h/mL
- Activity (Mus musculus [19]): Active
- Tmax [20]: 3 min
- Activity (Mus musculus [21]): Active
- Activity (Mus musculus [22]): Active
- IC50 (Cholinesterase [23]): 0.0114 µM
- inhibition at 10 µM (CYP2D6): 0.89%
- inhibition at 10 µM (CYP2C9): 10.9%
- AUC(0-t) [24]: 3570 ng·h/mL
- AUC(0-inf) [25]: 3590 ng·h/mL
- Cmax [26]: 1060 ng/mL
- AUC(0-inf) [27]: 1730 ng·h/mL
- solubility at 24 h [28]: 3.28 mM (≈ 1470 µg/mL)
- inhibition (Cholinesterase [29]): Active
- viability at 100 µM (PC-12 [30]): 75.5%

Source: ChEMBL document CHEMBL5506004, “Optimizing drug-like properties of selective butyrylcholinesterase inhibitors for cognitive improvement: Enhancing aqueous solubility by disrupting molecular plane” (Eur J Med Chem, 2024)
